Source: patent publication US10976310B2, “Ligand identification by co-fractionation” (MAX-PLANCK-GESELLSCHAFT ZUR FÖRDERUNG DER WISSENSCHAFTEN …, priority 2016, dated 2021)
Where two headings read alike, the source gives them in different places. Blank lines part the entries; values can stand above or below the molecule they belong to. Peptide text beside a SMILES is read from it.

Legend:
FBA6 = target: T1, FBA6 (Arabidopsis thaliana, UniProt Q9SJQ9); assay: Microscale thermophoresis (MST) binding to FBA6 expressed and purified from E. coli
T1 construct: made in house; host or cells: E. coli
T1 sequence (Q9SJQ9 1-358): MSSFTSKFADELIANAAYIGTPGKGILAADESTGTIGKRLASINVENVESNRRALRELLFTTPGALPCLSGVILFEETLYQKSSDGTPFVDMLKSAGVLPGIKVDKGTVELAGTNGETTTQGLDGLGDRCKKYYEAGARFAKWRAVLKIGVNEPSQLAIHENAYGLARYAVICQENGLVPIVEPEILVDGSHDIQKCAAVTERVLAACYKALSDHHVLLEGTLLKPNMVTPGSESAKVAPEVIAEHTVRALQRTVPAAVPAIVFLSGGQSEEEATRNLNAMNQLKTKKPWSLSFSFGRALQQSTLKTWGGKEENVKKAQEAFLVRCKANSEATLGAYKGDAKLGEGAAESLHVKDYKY
Excerpt: FBA6 protein was expressed and purified from E. coli. MST uses the intristic tendency of all the biological molecules to move in the temperature gradient. This movement is dependent on the molecule size, charge and hydration shell. Complex formation affects at least one of the three parameters changing the movement and indicating binding event. […] The results obtained point to both strong and specific interaction.

[1] = target: T2, gibberellin receptor GID1 (Oryza sativa subsp. japonica, UniProt Q6L545); settings: Ueguchi-Tanaka et al. (2005); read-out: Kd of binding to GID1; cited from earlier work
T2 sequence (Q6L545 1-354): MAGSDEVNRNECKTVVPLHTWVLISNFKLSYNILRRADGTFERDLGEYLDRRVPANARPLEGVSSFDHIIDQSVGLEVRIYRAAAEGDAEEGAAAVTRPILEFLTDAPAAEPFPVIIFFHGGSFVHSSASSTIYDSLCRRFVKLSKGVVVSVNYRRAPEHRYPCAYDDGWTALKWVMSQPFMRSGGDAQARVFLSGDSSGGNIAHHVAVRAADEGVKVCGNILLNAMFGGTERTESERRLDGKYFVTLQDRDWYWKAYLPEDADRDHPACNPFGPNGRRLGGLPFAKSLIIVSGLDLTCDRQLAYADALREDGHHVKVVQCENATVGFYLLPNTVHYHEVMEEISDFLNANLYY

[2] = target: T3, 3-methyl-2 oxobutanoate hydroxymethyl-transferase 1 (KPHMT1) (Arabidopsis thaliana, UniProt O82357); assay: Microscale thermophoresis (MST) assay, Panthotenate-KPHMT1 interaction; format: binding; settings: mean±SD, n=3
T3 sequence (O82357 49-347): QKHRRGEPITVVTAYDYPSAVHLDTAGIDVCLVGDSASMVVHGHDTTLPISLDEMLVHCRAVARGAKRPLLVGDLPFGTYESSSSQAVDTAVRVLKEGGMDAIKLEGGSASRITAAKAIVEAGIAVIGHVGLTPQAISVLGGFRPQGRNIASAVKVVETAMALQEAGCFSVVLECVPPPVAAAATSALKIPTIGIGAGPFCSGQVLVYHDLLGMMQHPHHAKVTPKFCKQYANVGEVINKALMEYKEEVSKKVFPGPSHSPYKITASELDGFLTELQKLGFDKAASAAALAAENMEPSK
Procedure: B) Panthotenate-KPHMT1 interaction was tested by Microscale thermophoresis (MST) assay. […] Data are mean±SD, n=3.

[3] = target: T4, Methylthioribose-1-phosphate isomerase (MTR-1-P) (Arabidopsis thaliana, UniProt Q9ZUG4); assay: Microscale thermophoresis (MST) assay, MTA-MTR-1-P interaction; format: binding; settings: mean±SD, n=3
T4 sequence (Q9ZUG4 1-374): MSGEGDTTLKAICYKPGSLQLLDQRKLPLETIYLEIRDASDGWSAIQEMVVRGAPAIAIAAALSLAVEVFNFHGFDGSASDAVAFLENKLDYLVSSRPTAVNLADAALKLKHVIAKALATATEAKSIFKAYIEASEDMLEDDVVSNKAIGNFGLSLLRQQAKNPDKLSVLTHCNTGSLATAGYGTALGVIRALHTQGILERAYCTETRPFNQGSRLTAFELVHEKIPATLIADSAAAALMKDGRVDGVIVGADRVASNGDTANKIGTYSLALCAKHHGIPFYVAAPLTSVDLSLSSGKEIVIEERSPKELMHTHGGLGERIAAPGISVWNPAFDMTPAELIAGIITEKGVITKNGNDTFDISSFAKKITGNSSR

Rbp47b = target: T5, Rbp47b (Arabidopsis thaliana, UniProt Q0WW84); assay: MST measurement of ligand binding to recombinant Rbp47b
T5 sequence (Q0WW84 1-435): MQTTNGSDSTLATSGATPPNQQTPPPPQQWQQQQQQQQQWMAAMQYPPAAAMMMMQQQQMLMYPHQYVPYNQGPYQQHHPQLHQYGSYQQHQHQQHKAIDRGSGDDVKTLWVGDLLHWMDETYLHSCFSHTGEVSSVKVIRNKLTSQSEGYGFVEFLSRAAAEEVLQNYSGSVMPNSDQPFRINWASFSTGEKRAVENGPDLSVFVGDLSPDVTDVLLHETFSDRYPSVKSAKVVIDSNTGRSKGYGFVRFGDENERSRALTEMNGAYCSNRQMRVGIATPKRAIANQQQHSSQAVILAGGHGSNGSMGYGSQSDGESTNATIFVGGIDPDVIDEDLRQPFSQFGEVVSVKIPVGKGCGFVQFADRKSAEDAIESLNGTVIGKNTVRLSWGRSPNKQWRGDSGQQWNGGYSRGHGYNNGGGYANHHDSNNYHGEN
Excerpt: We therefore attempted to determine the in vitro binding affinity biophysically using micro-scale thermophoresis (MST) (Jerabek-Willemsen et al. (2011) Molecular interaction studies using microscale thermophoresis. Assay Drug Dev Technol 9: 342-353). MST exploits the effect of size, charge, and hydration shell on the movement of molecules in a temperature gradient. Complex formation resulting in alteration of at least one of the three parameters leads to differential movement, from which the binding affinity can be determined. For the purpose of the MST experiment, Rbp47b was expressed in and purified from E. coli. […] The measured Kd value also corresponds to the ˜20 μM concentration of 2′,3′-cAMP measured in the native Arabidopsis lysate (FIG. 11B).
TIA1 protein was purchased from Origene (Herford, Germany). Rbp47b was cloned as a C-terminal GFP fusion (to increase protein solubility) into the E. coli expression vector pDEST14 containing His6-tag at the N-terminal of the Gateway (Karlsruhe, Germany) cassette. […]
Next day, cells were disrupted with an Avestin (Mannheim, Germany) EmulsiFlex C3 homogenizer and the protein was purified using imidazole-gradient purification in Ni-NTA agarose (Qiagen 34080, Hilden, Germany). […] Protein purity was assessed by SDS-PAGE and protein identification was done using western blot using anti-His6 antibodies. […]

TIA1 = target: T6, TIA1 (Homo sapiens, UniProt P31483); assay: MST measurement of ligand binding to recombinant TIA1
T6 construct: purchased Origene (Herford, Germany)
T6 sequence (P31483 1-386): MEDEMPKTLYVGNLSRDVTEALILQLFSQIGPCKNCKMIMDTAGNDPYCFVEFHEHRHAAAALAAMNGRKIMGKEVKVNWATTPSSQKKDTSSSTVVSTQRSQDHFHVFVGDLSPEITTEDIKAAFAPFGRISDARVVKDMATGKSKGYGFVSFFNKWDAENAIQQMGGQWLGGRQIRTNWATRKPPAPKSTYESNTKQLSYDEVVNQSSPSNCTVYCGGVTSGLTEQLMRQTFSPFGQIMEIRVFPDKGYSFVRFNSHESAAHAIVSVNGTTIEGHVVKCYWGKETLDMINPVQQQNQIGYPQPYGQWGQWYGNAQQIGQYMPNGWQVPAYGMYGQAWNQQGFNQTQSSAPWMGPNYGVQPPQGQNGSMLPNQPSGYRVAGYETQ
Procedure: Expecting such a basic role of 2′,3′-cAMP to be conserved, we performed similar analysis with TIA1, the human functional homolog of Rbp47b. TIA1 was labeled and its interaction with 2′,3′-cAMP was determined using MST.
TIA1 protein was purchased from Origene (Herford, Germany). Rbp47b was cloned as a C-terminal GFP fusion (to increase protein solubility) into the E. coli expression vector pDEST14 containing His6-tag at the N-terminal of the Gateway (Karlsruhe, Germany) cassette. Rosetta cells expressing His6-Rbp47b-GFP were grown at 28° C. overnight and next day were moved to Terrific Broth medium supplied with 1% sucrose and relevant antibiotics. Cultures at OD 0.4 were induced by addition of 0.1 mM IPTG and transferred to 16° C. for overnight incubation.
MST measurements were performed using a Monolith NT.115 instrument (NanoTemper, München, Germany). Capillaries were loaded into the instrument as sets of 13-16 point ligand titrations. Proteins (Rb47b and TIA1) were labeled in phosphate buffer (PBS) using Monolith™ protein labeling kit RED-NHS (amine reactive; MO-L001) according to the manufacturers instruction. Excitation was optimized by varying the LED power to yield emission intensities above 200 AU, corresponding to 10-50 nM labeled protein. Monolith power was set to 60%. Ligands [2′,3′-cAMP (Sigma A9376)] and [3′,5′-cAMP (Sigma A6885)] were dissolved in PBS. […]

Rbp47b-TAP protein = target: T7, Rbp47b-TAP protein (Arabidopsis thaliana, UniProt Q0WW84); assay: Cellular thermal shift assay (CETSA) in native Arabidopsis lysate; format: binding; settings: analogous experiment, native protein lysate
T7 construct: expressed in transfected cells; host or cells: Arabidopsis cell suspension culture, Agrobacterium-transformed
T7 sequence (Q0WW84 1-435): T5 sequence (Q0WW84 1-435)
Procedure: To this end we set out to identify the binding protein partners of 2′,3′-cAMP by applying affinity purification (AP) using agarose beads, with 2′,3′-cAMP linked via the NH2 group of the purine ring. After incubation of the beads with total soluble-protein extracts from A. thaliana cell suspension cultures (cf. Materials and Methods) sequential washings with ADP, GDP, 5′-AMP, and finally 2′,3′-cAMP were performed, and the proteins eluting in the different washings were analyzed by LC-MS/MS proteomics. Proteins eluting from the agarose beads exclusively with 2′,3′-cAMP but absent in any of the other eluents (ADP, GDP, or 5′-AMP; FIG. 10A) were defined as 2′,3′-cAMP-binding. Applying this stringent criterion only one protein remained: the polyadenylate-binding protein Rbp47b. We reasoned that the putative formation of Rbp47b-2′,3′-cAMP complexes in vivo should be reflected by largely overlapping elution profiles of the two components in a size-exclusion experiment (SEC), as was indeed the case (FIG. 10B). To obtain further and independent evidence for the formation of a complex between Rbp47b and 2′,3′-cAMP, we performed a cellular thermal shift assay (CETSA) (Franken et al. (2015) Thermal proteome profiling for unbiased identification of direct and indirect drug targets using multiplexed quantitative mass spectrometry. Nat Protoc 10: 1567-1593). CESTA is a method used in the drug research to verify ligand-receptor binding in the native cellular lysate, based on the observation that presence of the ligand changes thermal stability of the protein receptor. Herein, we adapted the protocol to be suitable for the plant material and an endogenous […] metabolite. We used Arabidopsis cells expressing a tagged version of the Rbp47b, so that Rbp47b level could be easily detected with the anti-tag antibody. […] Taken together, three independent experimental approaches (AP, SEC, and CETSA) provide evidence for the binding of 2′,3′-cAMP to Rbp47b in the native Arabidopsis lysate. […]

Molecule: dihydroxyacetone phosphate [DHAP]
- Kd (FBA6; MST, FBA6 purified from E. coli, read-out: Kd of binding to FBA6): ~200 nM

Molecule: NCC(=O)N1CCC[C@H]1C(=O)O [Gly-Pro, L-Gly-L-Pro] (H-Gly-Pro-OH)
- Kd (FBA6): ~200 nM

Molecule: CC1C[C@]23C[C@H]1CCC2[C@]12CC[C@H](O)[C@](C)(C(=O)O1)[C@H]2[C@@H]3C(=O)O (stereo partly drawn) [16,17-dihydro-GA4]
- Kd [1]: 1400 nM

Molecule: CC(C)(CO)[C@@H](O)C(=O)NCCC(=O)O [Panthotenate, Pantothenic acid]
- Kd [2]: 367000 nM

Molecule: CSC[C@H]1O[C@@H](n2cnc3c(N)ncnc32)[C@H](O)[C@@H]1O [MTA, Methylthioadenosine]
- Kd [3]: 2700 nM

- binding to FBA6 (in words) (FBA6; MST): not
Molecule: O=C(O)CNC(=O)[C@@H]1CCCN1 [Pro-Gly] (H-Pro-Gly-OH)

- binding to Rbp47b (in words) (Rbp47b): did not observe any binding
- binding to TIA1 (in words) (TIA1): not
- effect on thermal stability of Rbp47b (in words) (Rbp47b-TAP protein): No such effect was observed
Molecule: Nc1ncnc2c1ncn2[C@@H]1O[C@@H]2COP(=O)(O)O[C@H]2[C@H]1O [3′,5′-cAMP, reference compound]
